From patent publication US7601686B2, “Hepatitis C virus inhibitors” (Bristol-Myers Squibb Company, priority 2005, dated 2009)

Target: T1, HCV NS3/4A protease complex, J4L6S strain (Hepatitis C virus genotype 1b, UniProt O92972, C1454S/C1711G)
T1 construct: recombinant HCV NS3/4A protease complex (amino acids 1027 to 1711) for these strains; inferred from pET21b vector and Ni-NTA purification; made in house; host or cells: Escherichia coli BL21 (DE3), pET21b
Test: FRET peptide assay to monitor HCV NS3/4A proteolytic activity (J4L6S strain)
Type: biochemical
Source text: Generation of Recombinant HCV NS3/4A Protease Complex
HCV NS3 protease complexes, derived from the BMS strain, H77 strain or J4L6S strain, were generated, as described below. These purified recombinant proteins were generated for use in a homogeneous assay (see below) to provide an indication of how effective compounds of the present disclosure would be in inhibiting HCV NS3 proteolytic activity.
Serum from an HCV-infected patient was obtained from Dr. T. Wright, San Francisco Hospital. An engineered full-length cDNA (compliment deoxyribonucleic acid) template of the HCV genome (BMS strain) was constructed from DNA fragments obtained by reverse transcription-PCR (RT-PCR) of serum RNA (ribonucleic acid) and using primers selected on the basis of homology between other genotype 1a strains. From the determination of the entire genome sequence, a genotype 1a was assigned to the HCV isolate according to the classification of Simmonds et al. (See P Simmonds, K A Rose, S Graham, S W Chan, F McOmish, B C Dow, E A Follett, P L Yap and H Marsden, J. Clin. Microbiol., 31(6), 1493-1503 (1993)). […]

T1 sequence (O92972 1027-1711 C1454S/C1711G, one chain of several): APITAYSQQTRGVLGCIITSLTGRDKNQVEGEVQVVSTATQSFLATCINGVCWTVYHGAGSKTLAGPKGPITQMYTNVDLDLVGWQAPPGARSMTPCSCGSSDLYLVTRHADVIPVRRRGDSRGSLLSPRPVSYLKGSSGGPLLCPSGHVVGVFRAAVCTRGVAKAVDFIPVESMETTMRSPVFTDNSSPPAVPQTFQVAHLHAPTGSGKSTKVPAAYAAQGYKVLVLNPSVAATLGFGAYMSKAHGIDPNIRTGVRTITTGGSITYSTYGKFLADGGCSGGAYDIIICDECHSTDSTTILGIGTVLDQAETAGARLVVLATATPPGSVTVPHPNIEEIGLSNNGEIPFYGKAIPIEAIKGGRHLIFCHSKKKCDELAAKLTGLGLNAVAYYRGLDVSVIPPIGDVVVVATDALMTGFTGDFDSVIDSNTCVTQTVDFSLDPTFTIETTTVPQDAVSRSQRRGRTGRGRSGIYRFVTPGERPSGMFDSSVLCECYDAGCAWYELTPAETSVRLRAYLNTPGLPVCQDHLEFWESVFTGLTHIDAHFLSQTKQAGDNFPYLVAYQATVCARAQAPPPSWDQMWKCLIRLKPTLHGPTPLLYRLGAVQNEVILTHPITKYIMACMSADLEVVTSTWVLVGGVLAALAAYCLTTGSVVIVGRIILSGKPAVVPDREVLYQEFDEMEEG

## C=CC1CC1(NC(=O)[C@@H]1C[C@@H](NC(=O)c2cc(-c3ccccc3)nc3ccccc23)CN1C(=O)[C@@H](NC(=O)CC1CC1)C(C)(C)C)C(=O)NS(=O)(=O)C1CC1 (stereo partly shown) [Compound 9]
  IC50: 30 nM
